Experimental data reported in patent publication US20220409617A1, “Drug Formulations and Methods of Treatment for Metabolic Disorders” (The Regents of the University of California, priority 2019, published 2022).
“Also recorded” adds a separate entry of the source.

Tests used:
[1] = system: C16:0 ceramide generation (CerS6); assay: C16:0 ceramide levels in palmitate-treated MEFs (UPLC-MS/MS); format: cell-based, mouse
Experimental: Plasma pharmacokinetic analysis of sphingolipid-like compound 893 was performed by Pharmaron Corporation (Beijing, China). C16:0 ceramide levels were quantified in cells using the method described in (T. Kasumov, et al., Anal. Biochem. 401: 154-161, 2010, the disclosure of which is incorporated herein by reference) with minor modifications. Cultured cells were washed twice in PBS and scraped into 250 μL of HPLC grade water and flash frozen until time of analysis. On the day of analysis, samples were thawed, and an aliquot used for protein quantification. For C16:0 ceramide levels in mouse liver, 25 mg of tissue was homogenized in 1 ml of ice-cold PBS using a mechanical probe homogenizer (VWR, Radnor, Pa.), protein levels quantified, and 50 μl of the homogenate diluted with 150 μl HPLC-grade water for C16:0 ceramide analysis. Fifty ng of C17:0 ceramide prepared in ethanol (#22532, Cayman Chemical, Ann Arbor, Mich.) was added into 200 μL of the thawed cell suspension or liver homogenate as an internal standard to control for varying extraction efficiency; 750 μL of an ice-cold 1:2 chloroform/methanol mixture was then added. Samples were sonicated for 30 min and phase separation induced by the addition of 250 μL each of chloroform and HPLC-grade water. Samples were centrifuged at 4° C. for 10 min and the lower lipid phase transferred to a clean tube. The remaining protein and aqueous layers were re-extracted with an additional 500 μL of chloroform. Lipid phases were combined and then dried under vacuum. Dried extract was re-constituted in 100% acetonitrile immediately before analysis. Samples were analyzed by ultra-performance liquid chromatography tandem mass spectrometry (UPLC-MS/MS) using a Waters Micromass Quattro Premier XE equipped with a Waters ACQUITY BEH C4 column (Waters Corp.). Samples were resolved starting at 60% mobile phase A (10 mM ammonium acetate and 0.05% formic acid in water) to 98% mobile phase B (60:40 acetonitrile:isopropanol) over 3 min with a linear gradient, held at 98% B for 1 min, then the column was equilibrated with 60% A for 1 min. The mass spectrometer was operated in positive ion mode with the following parameters: cone voltage 20 V, source temperature 125° C., desolvation temperature 400° C. Ion transition channels for MS/MS were 538→264 for C16:0 ceramide and 552→264 for C17:0 ceramide, both with a dwell time of 285 ms. Standard curves prepared from C16:0 ceramide (#860516, Avanti Polar Lipids, Alabaster, Ala.) dissolved in ethanol were used for quantitation and were linear from 4.1 nM-1,000 nM, with an R^2 of 0.98 or greater.
3T3-L1 cells were maintained in DMEM with 10% FBS and 1% penicillin-streptomycin until induced to differentiate. […]

PIKfyve = PIKfyve (Homo sapiens, UniProt Q9Y2I7); settings: cited from earlier work
Chain of PIKfyve (Q9Y2I7 whole entry, species assumed): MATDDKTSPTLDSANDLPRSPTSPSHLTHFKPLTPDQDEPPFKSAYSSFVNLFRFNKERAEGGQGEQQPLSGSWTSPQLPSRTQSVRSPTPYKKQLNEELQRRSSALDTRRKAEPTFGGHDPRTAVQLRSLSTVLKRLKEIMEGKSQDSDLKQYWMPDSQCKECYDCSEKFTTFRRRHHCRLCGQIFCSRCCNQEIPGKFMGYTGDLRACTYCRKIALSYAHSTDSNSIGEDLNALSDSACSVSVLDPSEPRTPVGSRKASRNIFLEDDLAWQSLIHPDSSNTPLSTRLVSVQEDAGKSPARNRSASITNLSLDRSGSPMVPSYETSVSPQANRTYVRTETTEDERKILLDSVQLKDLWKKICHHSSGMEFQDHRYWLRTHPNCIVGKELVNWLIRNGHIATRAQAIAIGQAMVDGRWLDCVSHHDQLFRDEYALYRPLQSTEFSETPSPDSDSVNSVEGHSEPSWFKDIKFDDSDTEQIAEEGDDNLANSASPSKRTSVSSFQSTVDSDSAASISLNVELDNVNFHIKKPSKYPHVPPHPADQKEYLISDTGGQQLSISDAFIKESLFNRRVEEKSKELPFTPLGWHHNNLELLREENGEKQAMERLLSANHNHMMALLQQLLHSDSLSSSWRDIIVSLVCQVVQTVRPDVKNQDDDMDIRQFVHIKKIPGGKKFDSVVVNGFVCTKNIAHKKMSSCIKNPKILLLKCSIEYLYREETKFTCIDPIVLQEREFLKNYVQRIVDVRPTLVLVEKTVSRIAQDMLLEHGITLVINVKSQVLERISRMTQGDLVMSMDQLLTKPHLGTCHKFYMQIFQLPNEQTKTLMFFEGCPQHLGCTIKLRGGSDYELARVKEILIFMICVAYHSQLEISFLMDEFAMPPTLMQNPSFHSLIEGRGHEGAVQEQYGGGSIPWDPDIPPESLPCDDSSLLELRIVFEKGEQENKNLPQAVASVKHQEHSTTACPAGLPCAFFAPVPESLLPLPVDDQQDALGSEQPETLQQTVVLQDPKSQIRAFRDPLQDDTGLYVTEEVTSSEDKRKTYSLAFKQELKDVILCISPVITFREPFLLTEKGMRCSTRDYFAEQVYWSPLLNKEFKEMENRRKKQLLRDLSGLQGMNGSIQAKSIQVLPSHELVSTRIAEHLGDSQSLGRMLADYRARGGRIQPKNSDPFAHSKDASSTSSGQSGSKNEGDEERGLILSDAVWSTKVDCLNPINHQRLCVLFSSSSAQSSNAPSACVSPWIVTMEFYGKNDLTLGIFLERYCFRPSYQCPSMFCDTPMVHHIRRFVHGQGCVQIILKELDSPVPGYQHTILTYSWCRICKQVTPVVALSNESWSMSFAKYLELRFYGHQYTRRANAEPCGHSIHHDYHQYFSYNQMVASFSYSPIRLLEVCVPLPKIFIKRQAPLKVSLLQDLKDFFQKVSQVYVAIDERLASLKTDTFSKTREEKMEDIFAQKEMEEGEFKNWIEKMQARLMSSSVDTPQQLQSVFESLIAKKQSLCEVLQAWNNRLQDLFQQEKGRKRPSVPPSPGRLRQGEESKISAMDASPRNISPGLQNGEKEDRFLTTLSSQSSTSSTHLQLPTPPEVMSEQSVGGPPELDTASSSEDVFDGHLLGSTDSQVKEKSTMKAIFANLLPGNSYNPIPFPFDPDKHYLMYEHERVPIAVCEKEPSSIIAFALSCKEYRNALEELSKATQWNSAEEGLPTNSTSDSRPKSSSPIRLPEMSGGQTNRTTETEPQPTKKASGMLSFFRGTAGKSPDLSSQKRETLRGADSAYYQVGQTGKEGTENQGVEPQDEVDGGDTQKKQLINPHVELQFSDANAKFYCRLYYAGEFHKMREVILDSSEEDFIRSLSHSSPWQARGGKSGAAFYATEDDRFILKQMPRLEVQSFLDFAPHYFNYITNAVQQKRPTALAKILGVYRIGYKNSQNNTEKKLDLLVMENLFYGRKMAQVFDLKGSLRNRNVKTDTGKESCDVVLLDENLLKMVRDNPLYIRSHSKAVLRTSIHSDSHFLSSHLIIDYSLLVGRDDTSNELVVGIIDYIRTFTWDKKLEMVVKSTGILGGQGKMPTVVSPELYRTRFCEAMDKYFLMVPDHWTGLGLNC

ARF6 = ARF6 (Homo sapiens, UniProt P62330); settings: cited from earlier work
Chain of ARF6 (P62330 whole entry, species assumed): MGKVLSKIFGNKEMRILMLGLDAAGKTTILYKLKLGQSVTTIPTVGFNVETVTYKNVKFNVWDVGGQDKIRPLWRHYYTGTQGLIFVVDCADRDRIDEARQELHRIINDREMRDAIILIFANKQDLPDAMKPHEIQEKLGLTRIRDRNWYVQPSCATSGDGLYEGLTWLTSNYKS

[2] = Home-cage feeding study with suboptimal leptin (leptin sensitization); format: in vivo, mouse
Source text: Leptin is secreted by adipocytes in proportion to their triglyceride content, signaling to the CNS when peripheral energy stores are full and food consumption should decrease. In HFD-fed mice, chronic increases in adiposity lead to elevations in circulating leptin with no accompanying decrease in food intake, a state that has been termed leptin-resistant. Reducing leptin levels in the blood restores leptin signaling in the hypothalamus (S. Zhao, et al., 2019, cited supra). Thus, the sphingolipid-like compound 893 should function as a leptin-sensitizing agent. To test this model, 18 week old lean, male C57BL/6J mice were treated intraperitoneally with a suboptimal dose of recombinant leptin at ZT8.5 and food intake and body weight measured over the next 18 h. […] In summary, the reduction in food intake in sphingolipid-like compound 893-treated mice is consistent with the reversal of mitochondrial fragmentation in the hypothalamus and likely due in part to the re-sensitization of anorexigenic POMG neurons to leptin when plasma leptin levels are decreased.
Mice were singly housed and allowed to acclimate for 72 h before food intake was monitored. Food consumption was determined by monitoring the weight of food in the hopper. Initial food and body weight measurements were taken at ZT9 and final measurements were taken 16 h later to capture the active period where most consumption occurred. Home cage feeding studies were performed with C57BL/6J mice maintained on a HFD for 24 weeks (33 weeks of age), or ob/ob mice at 8 weeks of age. Mice received vehicle or 120 mg/kg sphingolipid-like compound 893 by gavage at ZT8.5. For experiments involving leptin, 18 week old, SD fed (16% kcal from fat, 2020×, Envigo) C57BL/6J mice received vehicle or 120 mg/kg sphingolipid-like compound 893 by gavage at ZT8.5. […] One ob/ob mouse died during Echo MRI for unknown reasons after 6 d of treatment with sphingolipid-like compound 893; data from this mouse was analyzed prior to death.

## CCCCCCCCc1ccc([C@H]2CCN[C@@H]2CO)cc1.Cl [compound 893]
[1]; MEFs, 3 h pre-treatment (893 5 μM, myriocin 10 μM, fumonisin B1 30 μM) then palmitate 250 μM 3 h
  Palmitate-induced C16:0 ceramide production: failed to block C16:0 ceramide generation; also recorded: without blocking palmitate-induced ceramide production
[1]; inferred from C16:0 ceramide generation in palmitate-treated cells
  CerS6 inhibition: did not inhibit CerS6
PIKfyve
  Effect on PIKfyve: inactivates
ARF6
  Effect on ARF6: inactivates
[2]; lean chow-fed 18 week old mice, leptin 2 mg/kg i.p. or 893 120 mg/kg by gavage
  Food intake and body weight over 18 h, single agent: trend towards reduced food intake and body weight
[2]; lean chow-fed mice, 893 120 mg/kg by gavage plus leptin 2 mg/kg i.p.
  Food intake and body weight over 18 h, combined with leptin: statistically significant decrease in food intake and body weight
